Measured values as given in patent US8338472B2, “Hexahydrocyclopentyl[F]indazole carboxamides and derivatives thereof as selective glucocorticoid receptor modulators” (Merck Sharp & Dohme Corp., priority 2008, dated 2012).
Like-named read-outs stand apart in the source and are kept apart here.

Assays:
[1] = target: T1, Glucocorticoid Receptor (Homo sapiens, UniProt P04150); test: Trans-Activation Modulation of Glucocorticoid Receptor (GRAMMER), MMTV-LUC reporter gene in A549 cells; format: cell-based; conditions: Table 1; for Emax: A549, A549 cells, read-out: Transactivation A549 Cells GRAMMER Emax; for Emax / Transactivation A549 Cells GRAMMER Emax: Emax relative to 300 nM dexamethasone; for EC50: inflection point, read-out: Transactivation A549 Cells GRAMMER IP; for EC50 / Transactivation A549 Cells GRAMMER Emax: A549 cells
T1 construct: These cells express large amount of the GR and are very responsive to GC treatment; endogenous in cells; host or cells: A549 cells transiently transfected with the MMTV-LUC reporter
T1 sequence (P04150 1-777): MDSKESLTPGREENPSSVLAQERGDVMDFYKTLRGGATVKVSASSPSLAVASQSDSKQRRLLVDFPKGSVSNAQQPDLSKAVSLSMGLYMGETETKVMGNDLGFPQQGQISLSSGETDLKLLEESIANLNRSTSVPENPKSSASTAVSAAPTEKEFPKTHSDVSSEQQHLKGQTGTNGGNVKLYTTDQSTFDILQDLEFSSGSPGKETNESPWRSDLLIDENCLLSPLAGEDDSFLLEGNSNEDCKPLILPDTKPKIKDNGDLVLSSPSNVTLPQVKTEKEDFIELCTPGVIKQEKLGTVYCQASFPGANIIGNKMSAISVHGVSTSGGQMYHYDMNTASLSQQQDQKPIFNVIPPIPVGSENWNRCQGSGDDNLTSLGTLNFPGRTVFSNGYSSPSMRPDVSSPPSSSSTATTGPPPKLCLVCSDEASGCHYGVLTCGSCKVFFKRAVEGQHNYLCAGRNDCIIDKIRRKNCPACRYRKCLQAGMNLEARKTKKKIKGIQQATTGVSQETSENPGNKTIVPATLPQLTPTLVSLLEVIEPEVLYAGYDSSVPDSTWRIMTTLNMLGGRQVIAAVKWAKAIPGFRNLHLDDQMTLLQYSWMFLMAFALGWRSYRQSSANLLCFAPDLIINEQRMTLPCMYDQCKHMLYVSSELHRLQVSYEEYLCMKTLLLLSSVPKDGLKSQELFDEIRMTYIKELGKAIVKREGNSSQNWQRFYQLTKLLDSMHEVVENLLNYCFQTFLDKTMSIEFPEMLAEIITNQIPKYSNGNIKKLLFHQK
Source text: Trans-Activation Modulation of Glucocorticoid Receptor (GRAMMER)
This assay assesses the ability of test compounds to control transcription from the MMTV-LUC reporter gene in lung adenocarcinoma A549 cells or MDA-MB-453 cells, a human breast cancer cell line that naturally expresses the human GR. The assay measures induction of a modified MMTV LTR/promoter linked to the LUC reporter gene.
The routine transient assay consists of plating 7,000-25,000 cells/well of a white, clear-bottom 96-well plate. Alternatively, 384-well plates can be used at a cell concentration of 10,000/well. The media that the cells are plated in is “exponential growth medium” which consists of phenol red-free RPMI1640 containing 10% FBS, 4 mM L-glutamine, 20 mM HEPES, 10 ug/mL human insulin, and 20 ug/mL gentamicin. Incubator conditions are 37° C. and 5% CO2. The transfection is done in batch mode. The cells are trypsinized and counted to the right cell number in the proper amount of fresh media. It is then gently mixed with the FuGene6/DNA mix and plated onto the 96 or 384-well plate, all the wells receive 100 uL or 40 uL, respectively, of medium+lipid/DNA complex then incubated 37° C. overnight. The transfection cocktail consists of serum-free OptiMEM, FuGene6 reagent and DNA. The manufacturer's (Roche Biochemical) protocol for cocktail setup is as follows: The lipid to DNA ratio is approximately 2.5:1 and the incubation time is 20 min at room temperature. Sixteen to 24 hours after transfection, the cells are treated with dexamethasone to a final concentration of 10 nM as well as the compound of interest, such that final DMSO (vehicle) concentration is equal to or less than 1%. Each plate also contains samples that are treated with 10 nM dexamethasone alone, which is used as the 100% activity control. The cells are exposed to the compounds for 24 hours. After 24 hours, the cells are lysed by a Promega cell culture lysis buffer for approximately 30 min and then the luciferase activity in the extracts is assayed in the 96-well format luminometer. In 384-well format, Steady-Glo (Promega) or Steady-Lite (PerkinElmer) can be used by adding an equal volume of reagent to the media present in each well. Activity induced by 10 nM dexamethasone alone is set at 100% activity. Antagonist activity is calculated by determining the decrease in dexamethasone-induced activity in response to compound treatment relative to samples that were treated with dexamethasone alone. […] This transactivation assay can be performed in an agonist and antagonist mode to identify these different activities.
Activity of test compounds is calculated as the Emax relative to the activity obtained with 300 nM dexamethasone. Activity of test compounds is calculated as the Emax relative to the activity obtained with 300 nM DEX. […] The action of compounds is also tested in an antagonist mode (Anti-GRAMMER) in which the cells are treated with medium containing an agonist such as 10 nM DEX and the ability to agents to inhibit the activation by an agonist is measured.

[2] = target: T2, human GR (Homo sapiens, UniProt P04150); test: Transrepression Assay (GITAR), TNFα-β-lactamase reporter gene in U937 cells; format: cell-based; conditions: for GITAR Greater than by GRAMMER % SEP: GITAR Emax minus GRAMMER Emax; for EC50: inflection point, read-out: Transrepression U937 Cells GITAR IP
T2 construct: U937 cells contain an endogenous glucocorticoid receptor (GR); endogenous in cells; host or cells: U937 cells stably transfected with the TNF-alpha promoter/beta-lactamase reporter
T2 sequence (P04150 1-777): T1 sequence (P04150 1-777)
Source text: Transrepression Assay (GITAR)
This assay assesses the ability of test compounds to control transcription from the TNFα-β-lactamase reporter gene in U937 cells, a human myelomonocytic leukemia cell line that naturally expresses the human GR. The assay measures compound dependent-repression of the TNFa promoter linked to a reporter gene.
The human U937 cells that had been stablely transfected with the TNF-α promoter driving β-lactamase are used for this assay. U937 cells contain an endogenous glucocorticoid receptor (GR). Cells are maintained in RPMI 1640 Growth medium (Gibco Cat#11875-093) containing 25 mM HEPES, 10% FBS, 2 mM L-Glutamine, 1 mM Sodium pyruvate, 25 μg/ml Gentamicin (Gibco Cat#15710-064), 1:1000 2-Mercaptoethanol (Gibco Cat#21985-023) and 0.8 mg/ml G418 (Gibco Cat#10131-027). The density of the cells in the flask needs to be about 1×10^6−3×10^6/ml at the time of harvest. Usually, the cells are split to 1.2˜1.4×10^5/ml (1:10) 3 days prior to the assay. 50,000 cells/well are plated in 96 well black-walled plates the day of assay. Test compounds are added 10 pt/well, and cells are incubated at 37° C. for 30-45 min. For assaying compounds, first dilute 1:10 in DMSO to make 1 mM, then further dilute 1:100 in medium to make 10× stock prior to adding to the cells. Add 50 ng/ml PMA (Sigma, cat# P8139) 10 μL/well to a final concentration 5 ng/ml, and 1 μg/ml LPS (Sigma, cat# L4130) 10 μL/well to a final concentration 100 ng/ml. Incubate cells at 37° C. overnight for ˜18 hr. PMA is stored frozen as 100 μg/ml stock in DMSO. Dilute 1:10 in DMSO for a working stock of 10 μg/ml and store at −20C. For assaying, dilute the […] working stock 1:200 in medium to make a 10× solution (50 ng/ml). Store frozen LPS at 1 mg/ml in PBS, dilute 1:1000 in medium to make 10× (1 μg/ml) for the assay. Add 6× loading buffer (CCF2−AM) 20 μL/well, and incubate at room temperature for 70-90 min. […] The activity repressed by 100 nM dexamethasone alone is set as 100% activity.

[3] = target: T3, glucocorticoid receptor (GR) (Homo sapiens, UniProt P04150); test: Ligand binding assay (GR BIND), 3H-dexamethasone displacement in MDA-MB-453 cell lysate; conditions: GR BIND Ki, Table 1
T3 sequence (P04150 1-777): T1 sequence (P04150 1-777)

[4] = U-937, U937 cells, activity repressed by 100 nM dexamethasone = 100%, Table 1, read-out: Transrepression U937 Cells GITAR Emax
[5] = U-937, text statement, 100 nM dexamethasone = 100%, read-out: maximal activity in the transrepression assay (GITAR)

SMILES | Emax [1] [%] | EC50 [1] [nM] | GITAR Greater than by GRAMMER % SEP ([2]; Table 1) [%] | Emax [2, 4] [%] | Emax [2, 5] [%] | EC50 ([2]; U937 cells, Table 1) [nM] | Ki [3] [nM] | Transactivation A549 Cells GRAMMER Emax [1] [%] | Transrepression U937 Cells GITAR Emax ([2]; U937 cells, activity repressed by 100 nM dexamethasone = 100%, Table 1) [%]
CCCCN(CCC)C(=O)[C@H]1CCC2=Cc3c(cnn3-c3ccc(F)cc3)C[C@@]21C [Compound 56, (4αR,5S)-N-butyl-1-{4-fluorophenyl)-4α-methyl-N-propyl-1,4,4α,5,6,7-hexahydrocyclopenta[f]indazole-5-carboxamide] | 44.1 | 430 | 24.0 | 68.1 | > 5 | 595 | 2.5 | – | –
C[C@]12Cc3cnn(-c4ccc(F)cc4)c3C=C1CC[C@@H]2C(=O)N(CCc1ccccc1F)CC(O)CC(F)(F)F (stereo partly drawn) [Compound 94, (4αR,5S)-l-(4-fluorophenyl)-N-[2-(2-fluorophenyl)ethyl]-4α-methyl-N-(4,4,4-trifluoro-2-hydroxybutyl)-1,4,4α,5,6,7-hexahydrocyclopenta[f]indazole-5-carboxamide] | 43.8 | 363 | 8.0 | 51.8 | – | 531 | 1.8 | – | –
CCN(CCC(F)(F)F)C(=O)[C@H]1CCC2=Cc3c(cnn3-c3ccc(F)cc3)C[C@@]21C [Compound 91, (4αR,5S)-N-ethyl-1-(4-fluorophenyl)-4α-methyl-N-(3,3,3-trifluoropropyl)-1,4,4α,5,6,7-hexahydrocyclopenta[f]indazole-5-carboxamide] | 44.5 | 312 | 30.6 | 75.1 | > 5 | 333 | 4.5 | – | –
CN(CC#N)C(=O)[C@H]1CCC2=Cc3c(cnn3-c3ccc(F)cc3)C[C@@]21C [Compound 41, (4αR,5S)-N-(cyanomethyl)-1-(4-fluorophenyl)-N,4α-dimethyl-1,4,4α,5,6,7-hexahydrocyclopenta[f]indazole-5-carboxamide] | 5.6 | 4050 | 35.4 | 41 | > 5 | 2360 | 44.3 | – | –
CN(CC(O)C(F)(F)F)C(=O)[C@H]1CCC2=Cc3c(cnn3-c3ccccc3)C[C@@]21C (stereo partly drawn) [Compound 74, (4αR,5S)-N,4α-dimethy1-1-phenyl-N-(3,3,3-trifluoro-2-hydroxypropyl)-1,4,4α,5,6,7-hexahydrocyclopenta[f]indazole-5-carboxamide] | – | 276 | 35.1 | 73.9 | > 5 | 381 | 10.6 | 38.8 | –
CC(C)CN(CC(C)C)C(=O)[C@H]1CCC2=Cc3c(cnn3-c3ccc(F)cc3)C[C@@]21C [Compound 11, (4αR,5S)-1-(4-fluorophenyl)-N,N-diisobutyl-4α-methyl-1,4,4α,5,6,7-hexahydrocyclopenta[f]indazole-5-carboxamide] | 45.3 | 177 | 22.2 | 67.5 | > 5 | 328 | 1.7 | – | –
C[C@]12Cc3cnn(-c4ccc(F)cc4)c3C=C1CC[C@@H]2C(=O)N(CCc1ccccc1F)CC(O)CC(F)(F)F (stereo partly drawn) [Compound 95, (4αR,5S)-1-(4-fluorophenyl)-N-[2-(2-fluorophenyl)ethyl]-4α-methyl-N-(4,4,4-trifluoro-2-hydroxybutyl)-1,4,4α,5,6,7-hexahydrocyclopenta[f]indazole-5-carboxamide] | – | 374 | 7.3 | – | – | 282 | 1 | 46.9 | 54.2
CCCCN(CC(O)C(F)(F)F)C(=O)[C@H]1CCC2=Cc3c(cnn3-c3ccccc3)C[C@@]21C (stereo partly drawn) [Compound 79, (4αR,5S)-N-butyl-4α-methyl-1-phenyl-N-(3,3,3-trifluoro-2-hydroxypropyl)-1,4,4α,5,6,7-hexahydrocyclopenta[f]indazole-5-carboxamide] | 70.7 | 180 | 17.6 | 88.3 | > 5 | 163 | 3.8 | – | –
CCN(CC)C(=O)[C@H]1CCC2=Cc3c(cnn3-c3ccc(F)cc3)C[C@@]21C [Compound 55, (4αR,5S)-N,N-diethyl-1-(4-fluorophenyl)-4α-methyl-1,4,4α,5,6,7-hexahydrocyclopenta[f]indazole-5-carboxamide] | 1.6 | 5000 | 22.3 | 23.9 | > 5 | 3950 | 53.5 | – | –
